Source: the OligoGym collection
HELM strings list units from the 5' end as sugar, base in round brackets, then linkage (d deoxyribose, r ribose, m 2'-O-methyl, p phosphodiester). Strings are as the collection lists them; they lack the last nucleoside at the 3' end of the tested compound. [moe] = 2'-O-(2-methoxyethyl) (MOE); [sp] = phosphorothioate linkage; [m5C] = 5-methylcytosine

Molecular target: UBE3A-ATS
Experiment: mouse, dose not given
Conditions: ASO

Substance	3 h FOB score
RNA1{[moe]([m5C])[sp].[moe](A)p.[moe](G)p.[moe](A)p.[moe]([m5C])p.d(T)[sp].d(T)[sp].d(A)[sp].d(T)[sp].d(T)[sp].d(G)[sp].d(A)[sp].d(G)[sp].d(G)[sp].d(A)[sp].[moe](T)p.[moe](G)p.[moe](G)[sp].[moe](T)}$$$$ (last 3' nucleoside missing)	5.7 score 0-7
RNA1{[moe]([m5C])[sp].[moe](A)p.[moe](G)p.[moe](G)p.[moe](T)p.d(G)[sp].d(T)[sp].d([m5C])[sp].d(T)[sp].d(T)[sp].d(A)[sp].d(T)[sp].d(A)[sp].d(T)[sp].d([m5C])[sp].[moe](T)p.[moe](A)p.[moe](T)[sp].[moe](G)}$$$$ (last 3' nucleoside missing)	0 score 0-7
RNA1{[moe]([m5C])[sp].[moe](A)p.[moe](G)p.[moe](T)[sp].d(T)[sp].d(A)[sp].d(G)[sp].d(G)[sp].d(T)[sp].d(T)[sp].d(A)[sp].d(G)[sp].[moe](T)p.[moe](G)p.[moe]([m5C])p.[moe](A)[sp].[moe]([m5C])}$$$$ (last 3' nucleoside missing)	2 score 0-7
RNA1{[moe]([m5C])[sp].[moe](A)p.[moe](G)p.[moe](T)p.[moe](A)p.d(G)[sp].d(T)[sp].d(G)[sp].d(G)[sp].d(T)[sp].d(A)[sp].d(T)[sp].d([m5C])[sp].d(A)[sp].d(A)[sp].[moe](A)p.[moe](T)p.[moe]([m5C])[sp].[moe](T)}$$$$ (last 3' nucleoside missing)	6.2 score 0-7
RNA1{[moe]([m5C])[sp].[moe](A)p.[moe](G)p.[moe](T)p.[moe](A)p.d(T)[sp].d([m5C])[sp].d(T)[sp].d(T)[sp].d(A)[sp].d(A)[sp].d([m5C])[sp].d(T)[sp].d(G)[sp].d(G)[sp].[moe](T)p.[moe](G)p.[moe](A)[sp].[moe](A)}$$$$ (last 3' nucleoside missing)	1 score 0-7
RNA1{[moe]([m5C])[sp].[moe](A)p.[moe](G)p.[moe](T)p.[moe](T)[sp].d(A)[sp].d(G)[sp].d(G)[sp].d(T)[sp].d(T)[sp].d(A)[sp].d(G)[sp].d(T)[sp].[moe](G)p.[moe]([m5C])p.[moe](A)[sp].[moe]([m5C])}$$$$ (last 3' nucleoside missing)	4 score 0-7
RNA1{[moe]([m5C])[sp].[moe](A)p.[moe](G)p.[moe](T)p.[moe](T)p.[moe](A)[sp].d(G)[sp].d(G)[sp].d(T)[sp].d(T)[sp].d(A)[sp].d(G)[sp].d(T)[sp].d(G)[sp].[moe]([m5C])p.[moe](A)[sp].[moe]([m5C])}$$$$ (last 3' nucleoside missing)	3.7 score 0-7
RNA1{[moe]([m5C])[sp].[moe](A)p.[moe](G)p.[moe](T)p.[moe](T)p.[moe](A)p.d(G)[sp].d(G)[sp].d(T)[sp].d(T)[sp].d(A)[sp].d(G)[sp].d(T)[sp].d(G)[sp].d([m5C])[sp].d(A)[sp].[moe]([m5C])p.[moe](A)[sp].[moe](G)}$$$$ (last 3' nucleoside missing)	5.2 score 0-7
RNA1{[moe]([m5C])[sp].[moe](A)p.[moe](G)p.[moe](T)p.[moe](T)p.d(A)[sp].d(G)[sp].d(G)[sp].d(T)[sp].d(T)[sp].d(A)[sp].d(G)[sp].d(T)[sp].d(G)[sp].d([m5C])[sp].[moe](A)p.[moe]([m5C])p.[moe](A)[sp].[moe](G)}$$$$ (last 3' nucleoside missing)	6 score 0-7
RNA1{[moe]([m5C])[sp].[moe](A)p.[moe](G)p.[moe](T)p.[moe](T)p.d(G)[sp].d(T)[sp].d(G)[sp].d(T)[sp].d(A)[sp].d(T)[sp].d(T)[sp].d(G)[sp].d(A)[sp].d([m5C])[sp].[moe](T)p.[moe](A)p.[moe](A)[sp].[moe](G)}$$$$ (last 3' nucleoside missing)	4.8 score 0-7
RNA1{[moe]([m5C])[sp].[moe](A)p.[moe](G)p.[moe](T)p.[moe](T)p.d(T)[sp].d(T)[sp].d([m5C])[sp].d(G)[sp].d([m5C])[sp].d([m5C])[sp].d([m5C])[sp].d(G)[sp].d(T)[sp].d(T)[sp].[moe](A)p.[moe]([m5C])p.[moe]([m5C])[sp].[moe](T)}$$$$ (last 3' nucleoside missing)	5 score 0-7
RNA1{[moe]([m5C])[sp].[moe](A)p.[moe](G)p.[moe]([m5C])p.[moe]([m5C])p.d(A)[sp].d(G)[sp].d(G)[sp].d(T)[sp].d(G)[sp].d(T)[sp].d([m5C])[sp].d(T)[sp].d(T)[sp].d(A)[sp].[moe](T)p.[moe](A)p.[moe](T)[sp].[moe]([m5C])}$$$$ (last 3' nucleoside missing)	2.3 score 0-7
RNA1{[moe]([m5C])[sp].[moe](A)p.[moe](G)p.[moe]([m5C])p.[moe]([m5C])p.d(A)[sp].d([m5C])[sp].d(T)[sp].d(T)[sp].d(T)[sp].d(G)[sp].d([m5C])[sp].d(A)[sp].d(A)[sp].d([m5C])[sp].[moe](T)p.[moe]([m5C])p.[moe](A)[sp].[moe](A)}$$$$ (last 3' nucleoside missing)	6.2 score 0-7
RNA1{[moe]([m5C])[sp].[moe](A)p.[moe](T)p.[moe](A)[sp].d([m5C])[sp].d([m5C])[sp].d([m5C])[sp].d(A)[sp].d(G)[sp].d(G)[sp].d(G)[sp].d(T)[sp].[moe](A)p.[moe](G)p.[moe](G)p.[moe](A)[sp].[moe](T)}$$$$ (last 3' nucleoside missing)	1 score 0-7
RNA1{[moe]([m5C])[sp].[moe](A)p.[moe](T)p.[moe](A)p.[moe](T)p.d(A)[sp].d([m5C])[sp].d(T)[sp].d(A)[sp].d(A)[sp].d(A)[sp].d(T)[sp].d(G)[sp].d(T)[sp].d(T)[sp].[moe](G)p.[moe]([m5C])p.[moe]([m5C])[sp].[moe](G)}$$$$ (last 3' nucleoside missing)	1 score 0-7
RNA1{[moe]([m5C])[sp].[moe](A)p.[moe](T)p.[moe](A)p.[moe](T)p.d(G)[sp].d(A)[sp].d(A)[sp].d(G)[sp].d([m5C])[sp].d(T)[sp].d(A)[sp].d(T)[sp].d(A)[sp].d(G)[sp].[moe](G)p.[moe](T)p.[moe](A)[sp].[moe]([m5C])}$$$$ (last 3' nucleoside missing)	1 score 0-7
RNA1{[moe]([m5C])[sp].[moe](A)p.[moe](T)p.[moe](A)p.[moe]([m5C])[sp].d([m5C])[sp].d([m5C])[sp].d(A)[sp].d(G)[sp].d(G)[sp].d(G)[sp].d(T)[sp].d(A)[sp].[moe](G)p.[moe](G)p.[moe](A)[sp].[moe](T)}$$$$ (last 3' nucleoside missing)	1 score 0-7
RNA1{[moe]([m5C])[sp].[moe](A)p.[moe](T)p.[moe](A)p.[moe]([m5C])p.[moe]([m5C])[sp].d([m5C])[sp].d(A)[sp].d(G)[sp].d(G)[sp].d(G)[sp].d(T)[sp].d(A)[sp].d(G)[sp].[moe](G)p.[moe](A)[sp].[moe](T)}$$$$ (last 3' nucleoside missing)	2 score 0-7
RNA1{[moe]([m5C])[sp].[moe](A)p.[moe](T)p.[moe](G)p.[moe](T)p.d(G)[sp].d(G)[sp].d(G)[sp].d([m5C])[sp].d([m5C])[sp].d(T)[sp].d([m5C])[sp].d(T)[sp].d(A)[sp].d(T)[sp].[moe](T)p.[moe](A)p.[moe](A)[sp].[moe](G)}$$$$ (last 3' nucleoside missing)	4 score 0-7
RNA1{[moe]([m5C])[sp].[moe](A)p.[moe](T)p.[moe](T)p.[moe](A)p.d(T)[sp].d(T)[sp].d([m5C])[sp].d(A)[sp].d(A)[sp].d(T)[sp].d(T)[sp].d(A)[sp].d(A)[sp].d(G)[sp].[moe](G)p.[moe](G)p.[moe](T)[sp].[moe](G)}$$$$ (last 3' nucleoside missing)	4 score 0-7
RNA1{[moe]([m5C])[sp].[moe](A)p.[moe](T)p.[moe](T)p.[moe](A)p.d(T)[sp].d(T)[sp].d([m5C])[sp].d(T)[sp].d([m5C])[sp].d(T)[sp].d(A)[sp].d(G)[sp].d(T)[sp].d(G)[sp].[moe]([m5C])p.[moe]([m5C])p.[moe](T)[sp].[moe](A)}$$$$ (last 3' nucleoside missing)	4 score 0-7
RNA1{[moe]([m5C])[sp].[moe](A)p.[moe](T)p.[moe](T)p.[moe](G)p.d(G)[sp].d([m5C])[sp].d(T)[sp].d(T)[sp].d([m5C])[sp].d(A)[sp].d(T)[sp].d(A)[sp].d(T)[sp].d(T)[sp].[moe](T)p.[moe]([m5C])p.[moe](T)[sp].[moe]([m5C])}$$$$ (last 3' nucleoside missing)	0 score 0-7
RNA1{[moe]([m5C])[sp].[moe](A)p.[moe](T)p.[moe]([m5C])p.[moe](A)p.d(T)[sp].d(G)[sp].d(A)[sp].d(T)[sp].d([m5C])[sp].d(T)[sp].d(T)[sp].d(G)[sp].d(G)[sp].d(T)[sp].[moe](A)p.[moe](A)p.[moe](G)[sp].[moe](G)}$$$$ (last 3' nucleoside missing)	3 score 0-7
RNA1{[moe]([m5C])[sp].[moe](A)p.[moe](T)p.[moe]([m5C])p.[moe](T)p.d([m5C])[sp].d(G)[sp].d(G)[sp].d(G)[sp].d(T)[sp].d(A)[sp].d(T)[sp].d(A)[sp].d(T)[sp].d(A)[sp].[moe](A)p.[moe](A)p.[moe](T)[sp].[moe](T)}$$$$ (last 3' nucleoside missing)	2 score 0-7
RNA1{[moe]([m5C])[sp].[moe](A)p.[moe]([m5C])p.[moe](A)p.[moe](T)p.d(T)[sp].d(A)[sp].d([m5C])[sp].d([m5C])[sp].d([m5C])[sp].d(A)[sp].d(T)[sp].d([m5C])[sp].d([m5C])[sp].d(G)[sp].[moe](T)p.[moe](T)p.[moe]([m5C])[sp].[moe](T)}$$$$ (last 3' nucleoside missing)	0 score 0-7
RNA1{[moe]([m5C])[sp].[moe](A)p.[moe]([m5C])p.[moe](T)p.[moe](G)p.d(A)[sp].d(G)[sp].d(T)[sp].d(T)[sp].d(T)[sp].d(T)[sp].d(T)[sp].d(G)[sp].d(T)[sp].d(A)[sp].[moe](G)p.[moe](T)p.[moe](T)[sp].[moe]([m5C])}$$$$ (last 3' nucleoside missing)	4 score 0-7
RNA1{[moe]([m5C])[sp].[moe](A)p.[moe]([m5C])p.[moe](T)p.[moe]([m5C])p.d(A)[sp].d(T)[sp].d(T)[sp].d(T)[sp].d(T)[sp].d(G)[sp].d(T)[sp].d(T)[sp].d([m5C])[sp].d(A)[sp].[moe](G)p.[moe]([m5C])p.[moe](T)[sp].[moe](T)}$$$$ (last 3' nucleoside missing)	3 score 0-7
